For one series, the system named is H2K mdx myotubes. Nature of the series: Differentiation of mdx myotubes (fusion index, MYOG gene expression). It counts as cell-based, murine. Conditions: mdx myotubes, 1, 5 and 10 μM.
In another series the test system is SSPN protein. In words: Sarcospan immunoblot of H2K mdx myotubes. The series is classed as cell-based, murine. Conditions: 2.5 to 10 μM, 48 hours. As for the experimental part: Myotubes treated for 48 hrs were lysed using RIPA buffer (Thermo Fisher Scientific) containing Halt Protease Inhibitor Cocktail (Thermo Fisher Scientific). Cell lysates in RIPA buffer were rocked for 1 hr at 4° C. and centrifuged at 1,000 RPM for 30 mins at 4° C. The supernatant was collected, quantified for protein concentration using the DC protein assay (Bio-Rad), and normalized to 2 mg/ml in water and Laemmli sample buffer with a final concentration of 10% glycerol (Sigma-Aldrich), 5% beta-mercaptoethanol (Sigma-Aldrich), 3% sodium dodecyl sulfate (Sigma-Aldrich), and 0.05% bromophenol blue (Sigma-Aldrich). […] Autoradiography films were developed using a SRX-101A tabletop processor (Konica Minolta), scanned to a digital file, and analyzed by densitometry of bands using ImageJ version 1.51 s. […]
After excluding compounds that were unstable in solution or that produced highly variable results, nine compounds remained. […] To determine if the increase in SSPN mRNA was also evident at the protein level, we treated mdx myotubes with 2.5 to 10 μM of OT-9, PC1-36, and PC1-42 and analyzed total protein lysates by immunoblotting with SSPN antibodies.
In general terms: In western blotting, separated proteins are transferred to a membrane and probed.

A further series has as its system SSPN gene expression. Nature of the series: SSPN gene expression in tibialis anterior after intramuscular injection in mdx mice. It counts as in vivo. Conditions: 4 hours. As for the experimental part:
For the preliminary safety assessment of OT-9, we performed IP injections in 6 month old C57/B16 males. The mice were injected with 100 μl of vehicle (5% DMSO (Sigma), 95% PBS), 100 μl of 30 mg/kg of OT-9 in vehicle, or 100 μl of 50 mg/kg of OT-9 in vehicle (n=1 mouse per treatment). […] For assessment of activity, 20-weeks old male mdx littermates were injected in both tibialis anterior muscles with vehicle (5% DMSO, 95% PBS) or 86 μg of OT-9. Two mice were injected in both TAs with vehicle and three mice were injected in both TAs with 200 of OT-9 (9.4 mM solution containing 86 μg of OT-9). After 4 hours, the muscles were harvested and processed for gene expression analysis. For assessment of activity of OT-9m after local administration, 19-22-weeks old mdx males were injected in both tibialis anterior muscles with vehicle (5% DMSO, 95% PBS) or 3 mg/kg and 10 mg/kg of OT-9m. After 4 hours, the muscles were harvested and processed for gene expression analysis. For assessment of activity of OT-9m after systemic administration, 13-weeks old mdx males were injected subcutaneously with vehicle (4% PEG-200 in hydroxypropyl-b-cyclodextrin) or 20 mg/kg/day of OT-9m. After 13 days of treatment, the muscles were harvested and processed for gene expression analysis.
After the preliminary safety evaluation, we tested the ability of OT-9 to increase SSPN gene expression in vivo. […] Five 20-weeks old male mdx littermates were subjected to intramuscular injections in both tibialis anterior (TA) muscles. Two mice were injected in both TAs with vehicle and […] were injected with 3 mg/kg of OT-9 (molar equivalent of 9.4 mM used in the safety assessment). After 4 hours of treatment, the TAs were harvested and processed for gene expression analysis. […] After determination that OT-9 is capable of increasing SSPN gene expression in vivo, we evaluated one of its derivatives, OT-9m, for its ability to increase SSPN expression in mdx mice. OT-9m was chosen based on its improved activity in vitro compared to OT-9 (compare, Table 1, entries 1 & 14). To assess activity OT-9m in vivo after local administration, eleven 19-22 weeks old male mdx mice were subjected to intramuscular injections in both tibialis anterior (TA) muscles. Four mice were injected in both TAs with vehicle, three mice were injected with 3 mg/kg of OT-9m and four mice were injected with 10 mg/kg of OT-9m. After 4 hours of treatment, the TAs were harvested and processed for gene expression analysis.

Data on one compound can be found in patent US20230348394A1, “COMPOSITIONS AND METHODS FOR TREATING MUSCULAR DYSTROPHIES” (The Regents of the University of California, priority 2020, published 2023).

Structures are written as SMILES.

Regarding `CCN(CC)c1ccc2cc(C(=O)Nc3ccc(C(=O)N4CCCCCC4)cc3)c(=O)oc2c1` [OT-9], in the series on H2K mdx myotubes, the MYOG gene expression entry is “slight increase” and the fusion index result is reported as “slight increase”. In addition, the “increase of SSPN protein levels” value in the series with SSPN protein stood at 1.5 fold. The “increase in SSPN gene expression relative to the vehicle control-treated group” value in the series on SSPN gene expression (3 mg/kg intramuscular, tibialis anterior) is given as 1.7 fold. Further, in the series with SSPN gene expression (OT-9 3 mg/kg intramuscular, both TA), the “adverse effects after local injection” value is given as “No adverse effects”.
